Counter-ions that a name gives are not always drawn.
Columns and labels:
BEC1 potassium channel = molecular target: T1, BEC1 potassium channel (Homo sapiens, UniProt Q9ULD8); assay: BEC1 inhibitory activity, 86Rb ion release from BEC1 expressing cells; format: cell-based; conditions: BEC1 stably expressing CHO (dhfr-deficient) cells, 100 mM KCl stimulation, 86Rb release; as free form; read-out: IC50 (μM) (Example 1)
T1 construct: expressed in transfected cells
T1 sequence (Q9ULD8 1-1083): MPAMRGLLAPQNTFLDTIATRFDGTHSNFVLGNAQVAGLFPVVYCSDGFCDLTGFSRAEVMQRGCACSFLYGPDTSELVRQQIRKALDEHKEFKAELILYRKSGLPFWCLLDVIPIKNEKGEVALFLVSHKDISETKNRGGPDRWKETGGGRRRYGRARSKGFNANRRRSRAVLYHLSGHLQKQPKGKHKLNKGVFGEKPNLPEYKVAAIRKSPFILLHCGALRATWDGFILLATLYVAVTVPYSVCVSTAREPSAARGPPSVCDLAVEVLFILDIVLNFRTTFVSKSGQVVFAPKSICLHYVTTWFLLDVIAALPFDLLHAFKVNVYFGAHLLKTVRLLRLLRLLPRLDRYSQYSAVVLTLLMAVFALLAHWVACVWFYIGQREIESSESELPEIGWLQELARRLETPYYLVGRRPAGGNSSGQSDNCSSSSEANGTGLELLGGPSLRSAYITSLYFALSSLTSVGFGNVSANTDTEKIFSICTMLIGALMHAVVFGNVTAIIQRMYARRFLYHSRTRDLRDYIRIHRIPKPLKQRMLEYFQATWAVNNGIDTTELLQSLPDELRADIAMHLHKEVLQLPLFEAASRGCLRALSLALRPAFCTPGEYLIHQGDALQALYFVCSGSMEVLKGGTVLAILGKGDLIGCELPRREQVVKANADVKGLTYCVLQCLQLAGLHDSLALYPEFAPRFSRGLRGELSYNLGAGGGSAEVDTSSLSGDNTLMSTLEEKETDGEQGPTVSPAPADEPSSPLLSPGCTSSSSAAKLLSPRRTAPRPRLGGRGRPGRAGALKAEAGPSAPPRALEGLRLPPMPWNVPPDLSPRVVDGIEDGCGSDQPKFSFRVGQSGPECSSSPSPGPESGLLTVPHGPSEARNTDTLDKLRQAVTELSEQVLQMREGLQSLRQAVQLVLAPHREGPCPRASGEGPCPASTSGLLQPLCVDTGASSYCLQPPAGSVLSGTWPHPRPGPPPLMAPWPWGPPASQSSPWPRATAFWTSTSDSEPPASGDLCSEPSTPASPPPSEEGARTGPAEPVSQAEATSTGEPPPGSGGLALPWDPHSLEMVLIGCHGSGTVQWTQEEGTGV
Experimental: Method for measuring BEC1 inhibitory activity of compound utilizing 86Rb ion release amount as index
The channel activity of BEC1 was measured according to the method described in U.S. Pat. No. 6,326,168 or U.S. Pat. No. 7,375,222, herein incorporated by reference, utilizing the release of the ions of radioactive isotope 86Rb from BEC1 expressing cells as an index. Specifically, when BEC1 expressing cells which had taken in 86Rb ions were stimulated with 100 mM KCl, the radioactivity released from the same cells was designated as the channel activity of BEC1. 86Rb ions were incorporated into cells by culturing (3 hours, 37° C.) BEC1 stably expressing cells in the presence of 86RbCl (0.5 μCi/ml), and the unincorporated 86Rb ions were removed by washing the cells three times with HEPES buffered physiological saline (pH 7.4, 2.5 mM KCl). The same cells were incubated for 15 minutes at room temperature in the presence of a DMSO solution containing the test compound and HEPES buffered physiological saline, and then were further incubated for 5 minutes at room temperature in the presence of a 100 mM KCl-containing HEPES buffer solution (pH 7.4) containing the same compound. The extracellular fluid was recovered, and then the remaining cells were lysed in 0.1 N NaOH and recovered. The Cherenkov radioactivities of the extracellular fluid and the cell lysate were respectively measured, and the sum was designated as the total radioactivity. The release amount of 86Rb ions was expressed as the percentage of the radioactivity of the extracellular fluid with respect to the total radiation activity. The value obtained in the presence of the compound was designated as a test value, the value obtained in the absence of the compound was designated as a control value, and the value obtained when the cells were not stimulated with 100 mM KCl was designated as a blank value. […] In addition, as for the BEC1 expressing cells, BEC1 stably expressing cells produced according to the method described in U.S. Pat. No. 6,326,168 or U.S. Pat. No. 7,375,222, herein incorporated by reference, using a dihydrofolate reductase (dhfr)-deficient strain of Chinese Hamster ovary cells, were used.

[1] = tested on: methamphetamine induced hyperlocomotion; assay: Methamphetamine induced hyperlocomotion model; format: in vivo, male ddY mouse; conditions: smallest oral dose giving significantly small activity vs solvent group; mouse; as free form
Experimental: Verification of the therapeutic effect on schizophrenia was carried out using a methamphetamine induced hyperlocomotion model. Methamphetamine is a psychostimulant, and is known to cause symptoms that are similar to schizophrenia by increasing the transmission in the dopaminergic neurons. The abnormal behavior produced when methamphetamine is administered to an animal is generally used as a screening method for a therapeutic drug for schizophrenia (Oka et al., 1993, J. Pharmacol. Exp. Ther., 264:158-165, herein incorporated by reference). That is, a male ddY mouse was placed in an activity monitoring apparatus, and after 30 minutes, methamphetamine was administered. After administering methamphetamine, the mouse was immediately returned to the monitoring apparatus, and the activity for one hour from immediately after the return was measured. For the measurement of the activity, a Supermex sensor manufactured by Muromachi Kikai Co., Ltd. was used. […] The solvent used was a 0.5% aqueous solution of methylcellulose. The statistical analysis was carried out between the solvent administered group and the drug administered groups, using Dunnett's test.
The test compounds (1) to (5) all suppressed methamphetamine induced hyperlocomotion.

[2] = tested on: phencyclidine induced prolonged immobility; assay: Phencyclidine induced prolonged immobility model (forced swimming test); format: in vivo, male ddY mouse; conditions: mouse; for phencyclidine induced prolonged immobility improving action (in words): oral administration; for Minimum effective dose (mg/kg p.o.) (Example 3): smallest oral dose giving significantly short immobility time vs solvent group, 1 h after administration, as free form
Experimental: Verification of the therapeutic effect on schizophrenia was carried out using a phencyclidine induced prolonged immobility model. Phencyclidine is a non-competitive antagonist of the N-methyl-D-aspartate receptor, a type of glutamate receptor, and abuse of this agent causes development of psychotic symptoms indistinguishable from those of schizophrenia. […] Forced swimming test is used as a screening assay for antidepressants, because immobility in this test is thought to reflect some aspect of depression such as lowering of motivation. Negative symptoms of schizophrenia also includes similar aspects, we could evaluate the efficacy of drugs for negative symptoms, such as apathy, using this test. Briefly, a male ddY mouse was gently placed in a cylindrical pool, and activity was measured for 3 min with SCANET (MV20-LAN, MELQUEST). Afterward immobility time was calculated with the SCANET file integrating software. Two days later, Mice were anesthetized with sodium pentobarbital. The Osmotic mini pumps (Alzet model 1002, DURECT Corporation) were subcutaneously implanted to mice. The pump infused saline or phencyclidine 1.2 mg/day/mouse with pumping rate of 0.25 μL/hour. Fourteen days after implantation, a test compound was administered to mice and an hour after administration, each mouse was gently placed in a cylindrical pool, and activity was measured for 3 min. Afterward immobility time was calculated. […] The solvent used was a 0.5% aqueous solution of methylcellulose. The statistical analysis was carried out between the solvent administered group and the drug administered groups, using Dunnett's test.

[3] = tested on: phencyclidine induced prolonged finding latency; assay: Water finding task in mice after neonatal treatment with phencyclidine; format: in vivo, male ddY mice; conditions: mouse; for phencyclidine induced prolonged finding latency improving action (in words): oral administration; for Minimum effective dose (mg/kg p.o.) (Example 4): smallest oral dose giving significantly short finding latency vs solvent group, as free form
Experimental: Verification of the therapeutic effect on schizophrenia was carried out using a water finding task in mice after neonatal treatment with phencyclidine. […] In addition, it has been reported that chronic treatment of PCP prolonged finding latency in the water-finding task (Mouri et al., 2007, Mol. Pharmacol., 180:152-60, herein incorporated by reference). Finding latency in the water-finding task provides a measure of latent learning in animals, which is thought to reflect attention. Attention is one of the most important domain of cognitive impairments in schizophrenia, we could evaluate the efficacy of drugs for cognitive impairments in schizophrenia using this task. Briefly, male ddY mice subcutaneously received PCP at a dose of 15 mg/kg or saline on postnatal day 7, 9 and 11. During the adult 7 weeks old, test compounds were orally administered to animals and 60 minutes later, the animals were placed in one corner of the open field and allowed to freely explore the training apparatus for 3 min. Immediately after the training trial, the animals were returned to their home cage and deprived of water until the test trial the next day. In the test trial, the mice were again placed individually in the test apparatus. The time between entering the alcove and drinking the water was measured. […] The solvent used was a 0.5% aqueous solution of methylcellulose. The statistical analysis was carried out between the solvent administered group and the drug administered groups, using Dunnett's test.

Structure (SMILES)	IC50 (BEC1 potassium channel) [µM]	Minimum effective dose (mg/kg p.o.) (Example 2) [1]	other results
Fc1ccc(Nc2nc(NCc3ncccn3)nc(Nc3ccc(F)cc3)n2)cc1 (as salt: HCl) [Compound 2a, N,N′-bis(4-fluorophenyl)-N″-(pyrimidin-2-ylmethyl)-1,3,5-triazine-2,4,6-triamine]	–	–	melting point: 183 to 186 °C
Fc1ccc(Nc2nc(NCc3ncccn3)nc(Nc3ccccc3)n2)cc1 [Compound 1, N-(4-fluorophenyl)-N′-phenyl-N″-(pyrimidin-2-ylmethyl)-1,3,5-triazine-2,4,6-triamine]	0.077	0.1	phencyclidine induced prolonged immobility improving action (in words) [2]: suppressed phencyclidine induced prolongation of immobility time; Minimum effective dose (mg/kg p.o.) (Example 3) [2]: 0.03 mg/kg p.o.; phencyclidine induced prolonged finding latency improving action (in words) [3]: suppressed phencyclidine induced prolongation of finding latency; Minimum effective dose (mg/kg p.o.) (Example 4) [3]: 0.03 mg/kg p.o.
Fc1ccc(Nc2nc(NCc3ncccn3)nc(Nc3ccc(F)cc3)n2)cc1 [Compound 2a, N,N′-bis(4-fluorophenyl)-N″-(pyrimidin-2-ylmethyl)-1,3,5-triazine-2,4,6-triamine]	0.065	0.03	–
Fc1ccc(Nc2nc(NCc3ncccn3)nc(Nc3ccc(F)cc3)n2)cc1 [Compound 2b, N,N′-bis(4-fluorophenyl)-N″-(pyrimidin-2-ylmethyl)-1,3,5-triazine-2,4,6-triamine]	–	–	phencyclidine induced prolonged immobility improving action (in words) [2]: suppressed phencyclidine induced prolongation of immobility time; Minimum effective dose (mg/kg p.o.) (Example 3) [2]: 0.01 mg/kg p.o.; phencyclidine induced prolonged finding latency improving action (in words) [3]: suppressed phencyclidine induced prolongation of finding latency; Minimum effective dose (mg/kg p.o.) (Example 4) [3]: 0.01 mg/kg p.o.
COc1ccc(Nc2nc(NCc3ncccn3)nc(Nc3ccc(F)cc3)n2)cc1 [Compound 3, N-(4-fluorophenyl)-N′-(4-methoxyphenyl)-N″-(pyrimidin-2-ylmethyl)-1,3,5-triazine-2,4,6-triamine]	0.092	0.03	–
Fc1ccc(Nc2nc(NCc3ccncn3)nc(Nc3ccc(F)cc3)n2)cc1 [Compound 4, N,N′-bis(4-fluorophenyl)-N″-(pyrimidin-4-ylmethyl)-1,3,5-triazine-2,4,6-triamine]	0.058	0.01	–
Cl.Fc1ccc(Nc2nc(NCc3ccnc(F)c3)nc(Nc3ccccc3)n2)cc1 [Compound 5, N-(4-fluorophenyl)-N′-[(2-fluoro-4-pyridyl)methyl]-N″-phenyl-1,3,5-triazine-2,4,6-triamine hydrochloride]	–	1.0	–
Cc1ccc(Nc2nc(NCc3ccnc(F)c3)nc(Nc3ccc(F)cc3)n2)cc1 [Compound 7, N-(4-fluorophenyl)-N′-[(2-fluoro-4-pyridyl)methyl]-N″-(4-methylphenyl)-1,3,5-triazine-2,4,6-triamine hydrochloride]	0.24	–	–
COc1ccc(Nc2nc(NCc3ccnc(F)c3)nc(Nc3ccc(F)cc3)n2)cc1 [Compound 8, N-(4-fluorophenyl)-N′-[(2-fluoro-4-pyridyl)methyl]-N″-(4-methoxyphenyl)-1,3,5-triazine-2,4,6-triamine hydrochloride]	0.17	–	–
COc1cccc(Nc2nc(NCc3ccnc(F)c3)nc(Nc3ccc(F)cc3)n2)c1 [Compound 10, N-(4-fluorophenyl)-N′-[(2-fluoro-4-pyridyl)methyl]-N″-(3-methoxyphenyl)-1,3,5-triazine-2,4,6-triamine hydrochloride]	0.25	–	–

From patent US20100256152A1, “NOVEL PHARMACEUTICAL COMPOSITION FOR TREATMENT OF SCHIZOPHRENIA” (ASTELLAS PHARMA INC., priority 2009, published 2010)
